Measured values reported in ChEMBL document CHEMBL1144838, “Use of lantibiotic synthetases for the preparation of bioactive constrained peptides” (Bioorg Med Chem Lett, 2008).
Non-standard residues stand in square brackets, D forms with d. Residues, ends and D or L forms follow the SMILES beside them. Dha = C=C(N)C(=O)O

Assays:
[1] = organism: Mus musculus; test: Agonist activity at mu opioid receptor in mouse model; assay type: functional
[2] = organism: Mus musculus; test: Agonist activity at mouse delta opioid receptor in mouse model; assay type: functional
[3] = molecular target: Tripeptidyl-peptidase 2 (Homo sapiens, UniProt P29144); test: Inhibition of human tripeptidyl peptidase2 from erythrocytes
Sequence of Tripeptidyl-peptidase 2 (P29144 whole entry): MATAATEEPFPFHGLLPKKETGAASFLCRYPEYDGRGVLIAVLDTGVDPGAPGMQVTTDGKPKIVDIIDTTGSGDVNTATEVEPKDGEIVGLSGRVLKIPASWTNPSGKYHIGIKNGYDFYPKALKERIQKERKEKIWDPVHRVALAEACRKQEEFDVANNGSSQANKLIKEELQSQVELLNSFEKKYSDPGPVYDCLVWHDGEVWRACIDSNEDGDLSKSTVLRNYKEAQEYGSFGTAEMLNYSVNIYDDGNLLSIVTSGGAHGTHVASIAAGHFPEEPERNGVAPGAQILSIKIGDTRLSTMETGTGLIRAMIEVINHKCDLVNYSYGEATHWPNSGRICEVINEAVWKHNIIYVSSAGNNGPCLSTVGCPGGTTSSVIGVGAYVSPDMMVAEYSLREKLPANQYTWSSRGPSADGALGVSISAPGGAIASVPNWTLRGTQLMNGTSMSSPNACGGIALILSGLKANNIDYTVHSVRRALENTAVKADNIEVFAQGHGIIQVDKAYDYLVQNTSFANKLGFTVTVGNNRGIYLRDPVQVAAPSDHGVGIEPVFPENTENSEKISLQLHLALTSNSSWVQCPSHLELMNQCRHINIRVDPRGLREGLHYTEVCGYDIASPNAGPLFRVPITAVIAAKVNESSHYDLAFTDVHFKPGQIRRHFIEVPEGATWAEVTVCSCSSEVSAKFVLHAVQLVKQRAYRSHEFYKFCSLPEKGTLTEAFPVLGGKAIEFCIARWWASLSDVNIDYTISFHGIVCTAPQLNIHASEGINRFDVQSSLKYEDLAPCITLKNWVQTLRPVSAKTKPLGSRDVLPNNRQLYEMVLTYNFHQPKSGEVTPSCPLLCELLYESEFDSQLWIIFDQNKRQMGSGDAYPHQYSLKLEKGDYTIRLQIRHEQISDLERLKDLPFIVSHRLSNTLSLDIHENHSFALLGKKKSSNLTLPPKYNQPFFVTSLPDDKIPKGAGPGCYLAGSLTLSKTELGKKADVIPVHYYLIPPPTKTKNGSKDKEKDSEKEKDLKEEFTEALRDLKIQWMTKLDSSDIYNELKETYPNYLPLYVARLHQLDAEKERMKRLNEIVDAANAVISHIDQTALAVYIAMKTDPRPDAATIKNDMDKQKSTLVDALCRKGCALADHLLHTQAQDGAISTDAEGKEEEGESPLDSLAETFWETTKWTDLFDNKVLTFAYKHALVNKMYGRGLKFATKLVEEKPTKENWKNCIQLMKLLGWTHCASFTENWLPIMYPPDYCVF

Row | SMILES | ED50 [1] | ED50 [2] | Ki [3]
1 | N[C@@H](Cc1ccc(O)cc1)C(=O)N[C@@H]1CSC[C@@H](C(=O)O)NC(=O)[C@H](Cc2ccccc2)NC(=O)CNC1=O | 0.0018 nM | 0.0018 nM | –
2 | C=C(NC(=O)[C@H](C)NC(=O)[C@@H](N)CCCNC(=N)N)C(=O)N[C@H](C(=O)N[C@@H](C)C(=O)O)C(C)C (H-RA[Dha]VA-OH) | – | – | 20 nM
3 | CN1CC[C@]23c4c5ccc(O)c4O[C@H]2[C@@H](O)C=C[C@H]3[C@H]1C5 [MORPHINE] | 15 nM | 15 nM | –
